Experimental data published in patent US5773459A, “Urea- and thiourea-type compounds” (Sugen, Inc., priority 1995, dated 1998).

Biological target: T1, FLK-1 receptor (Mus musculus, UniProt P35918)
T1 construct: expressed in transfected cells; host or cells: NIH3T3 C7#3 (FLK-1 infected cells)
Experiment: ELISA Assay to Measure Kinase Activity of FLK-1 Receptor in FLK-1/NIH Cells
Assay type: cell-based, murine
Settings: cellular, VEGF stimulated; read-out: ELISA DATA: FLK-1 - (Cell.)
Description: For purposes of this application, although the nomenclature of the human and murine counterparts of the generic "flk-l" receptor differ, they are, in many respects, interchangeable. The murine receptor, FLK1, and its human counterpart, KDR, share a sequence homology of 93.4% within the intracellular domain. Likewise, murine FLK-1 binds human VEGF with the same affinity as mouse VEGF, and accordingly, is activated by the ligand derived from either species. Millauer et al., 1993, Cell 72:835-846; Quinn et al., 1993, Proc. Natl. Acad. Sci. USA 90:7533-7537. FLK-1 also associates with and subsequently tyrosine phosphorylates human RTK substrates (e.g., PLC-γ or p85) when coexpressed in 293 cells (human embryonal kidney fibroblasts).
Models which rely upon the FLK-1 receptor therefore are directly applicable to understanding the KDR receptor. For example, use of the murine FLK-1 receptor in methods to identify compounds which regulate the signal transduction pathway are directly applicable to the identification of compounds which may be used to regulate the human signal transduction pathway, and more specifically, activity related to the KDR receptor. Chemical compounds identified as inhibitors of KDR/FLK-1 in vitro, will be confirmed in suitable in vivo models.
ELISA Assay to Measure Kinase Activity of FLK-1 Receptor in FLK-1/NIH Cells […]

T1 sequence (P35918 20-1345): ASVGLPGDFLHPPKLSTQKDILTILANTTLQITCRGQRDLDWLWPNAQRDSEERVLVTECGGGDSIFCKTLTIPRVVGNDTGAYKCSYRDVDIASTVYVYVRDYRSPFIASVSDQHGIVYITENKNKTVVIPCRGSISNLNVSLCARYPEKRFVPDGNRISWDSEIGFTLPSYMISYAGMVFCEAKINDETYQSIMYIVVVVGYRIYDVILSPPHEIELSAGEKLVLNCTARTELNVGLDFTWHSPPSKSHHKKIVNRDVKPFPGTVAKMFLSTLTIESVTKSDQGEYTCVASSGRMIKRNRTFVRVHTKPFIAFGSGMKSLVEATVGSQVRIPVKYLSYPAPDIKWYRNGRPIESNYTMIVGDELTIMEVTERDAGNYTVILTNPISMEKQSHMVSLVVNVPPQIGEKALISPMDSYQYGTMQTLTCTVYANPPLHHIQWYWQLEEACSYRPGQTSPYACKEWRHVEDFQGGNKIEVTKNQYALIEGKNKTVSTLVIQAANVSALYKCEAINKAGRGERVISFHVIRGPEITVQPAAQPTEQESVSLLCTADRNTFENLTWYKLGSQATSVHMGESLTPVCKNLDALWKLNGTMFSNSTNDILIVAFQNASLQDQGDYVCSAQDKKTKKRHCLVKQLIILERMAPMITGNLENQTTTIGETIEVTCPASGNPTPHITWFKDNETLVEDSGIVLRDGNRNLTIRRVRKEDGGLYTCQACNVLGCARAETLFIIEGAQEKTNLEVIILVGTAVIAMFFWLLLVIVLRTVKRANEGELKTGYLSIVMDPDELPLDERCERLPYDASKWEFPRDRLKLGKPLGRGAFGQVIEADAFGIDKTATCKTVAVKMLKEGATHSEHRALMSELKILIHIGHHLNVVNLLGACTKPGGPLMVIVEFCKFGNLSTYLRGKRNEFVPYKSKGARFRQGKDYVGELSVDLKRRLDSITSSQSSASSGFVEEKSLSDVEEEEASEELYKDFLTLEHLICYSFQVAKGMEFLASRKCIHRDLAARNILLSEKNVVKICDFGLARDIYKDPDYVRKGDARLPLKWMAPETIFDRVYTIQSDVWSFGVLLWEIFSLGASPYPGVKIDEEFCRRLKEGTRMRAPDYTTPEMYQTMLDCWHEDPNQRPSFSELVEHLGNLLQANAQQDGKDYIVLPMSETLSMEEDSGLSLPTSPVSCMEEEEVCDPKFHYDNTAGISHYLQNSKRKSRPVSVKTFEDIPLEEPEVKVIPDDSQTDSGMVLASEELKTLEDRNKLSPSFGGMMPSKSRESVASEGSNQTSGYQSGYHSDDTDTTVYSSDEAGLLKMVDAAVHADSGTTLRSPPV

IC50 [µM]	Compound
1	CC(C)S(=O)(=O)c1csc(NC(=O)Nc2ccc(C(C)(C)C)cc2)c1Cl [Example Z1, N-[3-Chloro-4-(isopropylsulfonyl)thien-2-yl]-N'-(4-t-butylphenyl)urea]
> 100	CC(C)S(=O)(=O)c1csc(NC(=O)Nc2cc(C(F)(F)F)cc(C(F)(F)F)c2)c1Cl [Example Z2, N-[3-Chloro-4-(isopropylsulfonyl)thien-2-yl]-N'-(3,5-di-trifluoromethylphenyl)urea]
